Data published in PubChem BioAssay AID2060621 (Molecular Pharmacology Branch, DTP, NCI, 2025).

Tested on: 324938-238-R-J1-PDC complex spheroids viability
Assay: Anticancer human tumor 324938-238-R-J1-PDC patient-derived bladder carcinoma cell line growth inhibition [CLK]
Conditions: for IC50: curve of first compound; for viability, T/C: stronger effect = lower value
Outline: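 Multi-cell-type spheroids combined patient-derived tumor cells with HUVEC endothelial cells and human mesenchymal stem cells. Paired agents were dosed in half-log steps down from about clinical Cmax, or from 10 microM where Cmax was unknown.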
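Also: viability read after seven days of drug exposure.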
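For viability, T/C in this document: 100% = DMSO vehicle control wells.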

Cn1ncnc1[C@H]1c2n[nH]c(=O)c3cc(F)cc(c23)N[C@@H]1c1ccc(F)cc1 + CN1CCN(c2cc(C(=O)Nc3cc4cc(-c5cnn(C)c5)ccc4cn3)ccn2)CC1
IC50 (second compound 0.0316 µM): 8.66 nM
IC50 (second compound 0.1 µM): 1.53 nM
IC50 (second compound 0.316 µM): < 0.316 nM
IC50 (second compound 1 µM): < 0.316 nM
IC50 (second compound 3.16 µM): < 0.316 nM
IC50 (second compound 10 µM): < 0.316 nM
viability, T/C (second compound 0.0316 µM, first compound 0.000316 µM): 78%
viability, T/C (second compound 0.0316 µM, first compound 0.001 µM): 74%
viability, T/C (second compound 0.0316 µM, first compound 0.00316 µM): 58.2%
viability, T/C (second compound 0.0316 µM, first compound 0.01 µM): 51.9%
viability, T/C (second compound 0.0316 µM, first compound 0.0316 µM): 32.5%
viability, T/C (second compound 0.0316 µM, first compound 0.1 µM): 24.4%
viability, T/C (second compound 0.1 µM, first compound 0.000316 µM): 57.5%
viability, T/C (second compound 0.1 µM, first compound 0.001 µM): 54.8%
viability, T/C (second compound 0.1 µM, first compound 0.00316 µM): 43.6%
viability, T/C (second compound 0.1 µM, first compound 0.01 µM): 32.7%
viability, T/C (second compound 0.1 µM, first compound 0.0316 µM): 27%
viability, T/C (second compound 0.1 µM, first compound 0.1 µM): 19.8%
viability, T/C (second compound 0.316 µM, first compound 0.000316 µM): 23.8%
viability, T/C (second compound 0.316 µM, first compound 0.001 µM): 22.4%
viability, T/C (second compound 0.316 µM, first compound 0.00316 µM): 23.1%
viability, T/C (second compound 0.316 µM, first compound 0.01 µM): 21.2%
viability, T/C (second compound 0.316 µM, first compound 0.0316 µM): 18.5%
viability, T/C (second compound 0.316 µM, first compound 0.1 µM): 15%
viability, T/C (second compound 1 µM, first compound 0.000316 µM): 0.86%
viability, T/C (second compound 1 µM, first compound 0.001 µM): 0.77%
viability, T/C (second compound 1 µM, first compound 0.00316 µM): 0.99%
viability, T/C (second compound 1 µM, first compound 0.01 µM): 0.51%
viability, T/C (second compound 1 µM, first compound 0.0316 µM): 0.6%
viability, T/C (second compound 1 µM, first compound 0.1 µM): 1.4%
viability, T/C (second compound 3.16 µM, first compound 0.000316 µM): 0.15%
viability, T/C (second compound 3.16 µM, first compound 0.001 µM): 0.2%
viability, T/C (second compound 3.16 µM, first compound 0.00316 µM): 0.14%
viability, T/C (second compound 3.16 µM, first compound 0.01 µM): 0.09%
viability, T/C (second compound 3.16 µM, first compound 0.0316 µM): 0.12%
viability, T/C (second compound 3.16 µM, first compound 0.1 µM): 0.14%
viability, T/C (second compound 10 µM, first compound 0.000316 µM): 0.07%
viability, T/C (second compound 10 µM, first compound 0.001 µM): 0.13%
viability, T/C (second compound 10 µM, first compound 0.00316 µM): 0.16%
viability, T/C (second compound 10 µM, first compound 0.01 µM): 0.12%
viability, T/C (second compound 10 µM, first compound 0.0316 µM): 0.12%
viability, T/C (second compound 10 µM, first compound 0.1 µM): 0.19%
